Data set [1] concerns the target T1, EGFP-human Top1 in MCF7 cells (Homo sapiens, UniProt P11387).
T1 construct: expressed in transfected cells; host or cells: MCF7 cells, transient transfection (Lipofectamine 2000)
T1 sequence (P11387 1-765): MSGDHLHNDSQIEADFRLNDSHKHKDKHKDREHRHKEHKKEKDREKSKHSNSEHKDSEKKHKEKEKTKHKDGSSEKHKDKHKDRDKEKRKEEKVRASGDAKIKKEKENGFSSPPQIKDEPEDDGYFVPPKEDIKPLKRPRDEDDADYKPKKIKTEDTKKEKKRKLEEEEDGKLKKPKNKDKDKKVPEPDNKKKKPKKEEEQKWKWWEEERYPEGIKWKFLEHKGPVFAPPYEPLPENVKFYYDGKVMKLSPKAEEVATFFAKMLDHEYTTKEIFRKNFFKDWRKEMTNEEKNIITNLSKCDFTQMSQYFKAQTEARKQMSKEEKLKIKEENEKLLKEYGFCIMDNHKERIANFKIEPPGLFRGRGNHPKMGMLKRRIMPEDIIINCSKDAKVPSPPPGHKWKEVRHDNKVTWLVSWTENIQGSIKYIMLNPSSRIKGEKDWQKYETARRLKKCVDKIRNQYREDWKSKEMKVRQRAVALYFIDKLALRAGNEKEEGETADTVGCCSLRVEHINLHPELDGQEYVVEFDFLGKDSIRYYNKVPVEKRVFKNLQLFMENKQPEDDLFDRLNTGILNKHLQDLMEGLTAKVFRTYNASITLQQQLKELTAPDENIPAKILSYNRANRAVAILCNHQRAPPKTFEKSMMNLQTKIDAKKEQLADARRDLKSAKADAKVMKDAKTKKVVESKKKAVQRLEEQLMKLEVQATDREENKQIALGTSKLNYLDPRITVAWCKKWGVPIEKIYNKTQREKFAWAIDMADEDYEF
The experiment in a line: FRAP of EGFP-Top1 in live MCF7 cells. Particulars: CPT 5 μM 10 min, then compound 20 μM 10 min. In kind it is cell-based. Here is the method:
To obtain direct evidence for compound 8 mediated inhibition of Top1cc formation in live human carcinoma cells, we used MCF7 cells and transiently expressed EGFP-Top1. Live cells expressing ectopic Top1 were analyzed under laser confocal microscopy equipped with fluorescence recovery after photobleaching (FRAP) technology.[40]−[42]
Photobleaching experiments were performed as described formerly[40]−[42] using Andor Spining disk inverted confocal laser-scanning microscope equipped with a 60×/1.42 NA oil-immersion objective (Olympus) and with a CO2-controlled on-stage heated environmental chamber set to 37 °C. FRAP analyses were carried out with living MCF7 cells ectopically expressing EGFP-human Top1 grown on chamber cover glass (Genetix, India) and drug treated as indicated. For FRAP analysis, a subnuclear spot was bleached for 30 ms by solid-state laser line (488 nm for EGFP) adapted to the fluorescent protein of interest and FRAP curves were generated individually normalized to the prebleach signal as described previously.[42]

For data set [2], the system named is MCF7 cells transfected with Top1 or Ctr siRNA. The experiment in a line: Cell survival (MTT) assay in MCF7 cells transfected with Top1 or control siRNA. In kind it is cell-based, human. As to the method:
To further confirm that Top1 is the cellular target for compound 8 mediated cytotoxicity, we have performed cytotoxicity assays in siRNA mediated Top1 knockdown cells (Figure 6G, inset).
(§1) Cell survival was assessed by 3-(4,5-dimethylthiazol-2-yl)-2,5-diphenyltetrazolium bromide (MTT) assay as discussed previously.[6] The percent inhibition of viability for each concentration of the compounds was calculated with respect to the control, and IC50 values were estimated.
Transfections were performed as described previously.[40] In brief, cells (1.5 × 10^5) were transfected with control siRNA or 40 nM Top1 siRNA (Qiagen) using oligofectamine (Invitrogen) according to the manufacturer’s protocol.

Data set [3] relates to human breast adenocarcinoma cell lines (MCF7). The experiment in a line: Cell survival (MTT) assay, MCF7. Format: cell-based. The settings on record: MCF7, CPT 5 μM 12 h prior to addition of compound 8. Here is the method:
(§2) Compound 8 was investigated for its cytotoxicity in the cancer cell lines from different tissue origin,[6],[41] as well as in the noncancerous human embryonic kidney cell lines (HEK293) and mouse embryonic fibroblasts (MEFs). […] The MCF7 breast cancer cell lines were most susceptible to compound 8.
as §1

Data set [4] is described as follows: Cell survival (MTT) assay, HEK293. In kind it is cell-based. Particulars: human, HEK293 cells (noncancerous embryonic kidney), read-out: IC50 cytotoxicity. As to the method:
as §2, §1

The target in another data set is T2, Top1cc in MCF7 cells (Homo sapiens, UniProt P11387).
T2 construct: endogenous in cells; host or cells: MCF7 cells
T2 sequence (P11387 2-765 limits assumed): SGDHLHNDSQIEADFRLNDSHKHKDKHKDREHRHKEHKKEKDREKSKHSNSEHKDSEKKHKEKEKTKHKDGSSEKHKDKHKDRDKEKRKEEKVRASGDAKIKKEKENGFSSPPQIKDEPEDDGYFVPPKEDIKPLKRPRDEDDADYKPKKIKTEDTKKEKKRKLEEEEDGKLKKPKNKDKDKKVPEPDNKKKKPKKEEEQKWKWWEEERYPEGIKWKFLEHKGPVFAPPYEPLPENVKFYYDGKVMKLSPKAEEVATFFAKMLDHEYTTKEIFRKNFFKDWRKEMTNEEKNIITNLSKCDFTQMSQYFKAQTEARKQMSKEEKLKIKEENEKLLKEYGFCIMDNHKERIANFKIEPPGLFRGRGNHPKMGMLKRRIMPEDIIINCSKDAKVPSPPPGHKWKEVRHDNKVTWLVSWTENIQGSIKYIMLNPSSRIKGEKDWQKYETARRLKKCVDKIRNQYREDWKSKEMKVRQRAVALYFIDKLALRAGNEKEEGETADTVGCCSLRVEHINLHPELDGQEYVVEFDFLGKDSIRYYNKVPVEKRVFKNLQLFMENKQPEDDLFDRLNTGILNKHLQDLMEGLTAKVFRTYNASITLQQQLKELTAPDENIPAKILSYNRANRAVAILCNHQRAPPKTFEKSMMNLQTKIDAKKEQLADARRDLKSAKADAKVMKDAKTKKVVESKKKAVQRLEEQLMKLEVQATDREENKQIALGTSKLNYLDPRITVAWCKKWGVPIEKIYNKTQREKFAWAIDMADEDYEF
As to the kind of experiment: Immuno complex of enzyme (ICE) bioassay. Format: cell-based. Here is the method:
Because compound 8 stimulates apoptosis (Figure 4C and Figure 5B), we examined accumulation of apoptotic Top1-DNA complexes in compound 8 treated cells (Figure 4D) by ICE bioassays.[15],[16] Top1cc related to apoptosis is due to secondary DNA modifications and is independent from direct Top1-drug interaction.[15]−[17] […] Therefore, proteasome mediated degradation of Top1 triggers compound 8 induced apoptosis without stabilizing apoptotic Top1-DNA covalent complexes. […] Genomic DNA was prepared and was briefly sonicated. Varying concentrations of DNA were spotted onto nitrocellulose membrane (Millipore, USA) using a slot-blot vacuum system (Biorad, USA). Immunoblotting was carried out with antihuman Top1 antibodies as described.[41]

The structures appear in SMILES notation.

What is called IC50 is the concentration that inhibits the measured activity by half. As to `CN(C)c1ccc(-c2c3nc(c(-c4ccc(N(C)C)cc4)c4ccc([nH]4)c(-c4ccc(C(=O)O)cc4)c4nc(c(-c5ccc(C(=O)O)cc5)c5ccc2[nH]5)C=C4)C=C3)cc1` [Compound 8, 5,10-Bis(4-carboxyphenyl)-15,20-bis(4-dimethylaminophenyl)porphyrin], the “Top1 mobility restored in cells pretreated with CPT (FRAP)” value in data set [1] is 12–15%. The “Cytotoxicity in Top1 knockdown cells compared to Top1 proficient cells” value in data set [2] was “reduced cytotoxicity”. The “Cytotoxicity of CPT pretreatment followed by compound 8” value in data set [3] is “not additive in cytotoxicity”. In data set [4], the half-inhibitory concentration (IC50) is greater than 10 µM. Moreover, the “Top1 in DNA-containing fractions (apoptotic Top1cc)” value on Top1cc in MCF7 cells (20 μM, 12 h) was “absence of Top1 in the DNA-containing fractions”. For the same compound, at Top1cc in MCF7 cells (CPT 10 μM 6 h before addition of compound 8 20 μM for 6 h), the “Effect on CPT-induced cellular Top1-DNA complexes” value is listed as “abrogates CPT-induced cellular Top1-DNA complexes”.

Source of the values: paper PMC5808360, “Neutral Porphyrin Derivative Exerts Anticancer Activity by Targeting Cellular Topoisomerase I (Top1) and Promotes Apoptotic Cell Death without Stabilizing Top1-DNA Cleavage Complexes” (Journal of Medicinal Chemistry, 2017).
